Measurements as given in the supplement of paper PMC11061612.

Tests used:
Assay in all cases: combination Emax (second highest fraction inhibited in the dose matrix, 72 h); higher = more inhibition; extreme values may be limits of the assay
[1] = system: AGS (Gastric Carcinoma)
How it was run: (§1)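 Bliss excess equals the observed combination effect minus the expected value EA + EB − EA·EB, where EA and EB are the effects of each agent alone. Combination Emax is the second-highest inhibition within the matrix. Inhibition was scaled from CellTiter-Glo 2.0 luminescence, with 0 set by vehicle wells and 1 by blank wells, after 72 hours of two-drug dosing of cells plated in 1536-well plates.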

[2] = system: CCRF-CEM (T-Lymphoblastic Leukemia)
How it was run: as §1

[3] = system: CaR-1 (Colorectal Carcinoma)
How it was run: as §1

[4] = system: DEL (T-Cell Non-Hodgkin's Lymphoma)
How it was run: as §1

[5] = system: Daoy (Other Solid Carcinomas)
How it was run: as §1

[6] = system: ES4 (Ewing's Sarcoma)
How it was run: as §1

[7] = system: HCC-78 (Lung Adenocarcinoma)
How it was run: as §1

[8] = system: HO-1-N-1 (Oral Cavity Carcinoma)
How it was run: as §1

[9] = system: HT-1376 (Bladder Carcinoma)
How it was run: as §1

[10] = system: HuP-T4 (Pancreatic Carcinoma)
How it was run: as §1

[11] = system: LB831-BLC (Bladder Carcinoma)
How it was run: as §1

[12] = system: MDA-MB-361 (Breast Carcinoma)
How it was run: as §1

[13] = system: MFE-296 (Endometrial Carcinoma)
How it was run: as §1

[14] = system: NCI-H2085 (Non-Small Cell Lung Carcinoma)
How it was run: as §1

[15] = system: NCI-H82 (Small Cell Lung Carcinoma)
How it was run: as §1

[16] = system: RC-K8 (B-Cell Non-Hodgkin's Lymphoma)
How it was run: as §1

[17] = system: SNU-5 (Gastric Carcinoma)
How it was run: as §1

[18] = system: TCCSUP (Bladder Carcinoma)
How it was run: as §1

[19] = system: TE-9 (Esophageal Squamous Cell Carcinoma)
How it was run: as §1

[20] = system: UM-UC-3 (Bladder Carcinoma)
How it was run: as §1

Row | Compound | combination Emax [1] | combination Emax [2] | combination Emax [3] | combination Emax [4] | combination Emax [5] | combination Emax [6] | combination Emax [7] | combination Emax [8] | combination Emax [9] | combination Emax [10] | combination Emax [11] | combination Emax [12] | combination Emax [13] | combination Emax [14] | combination Emax [15] | combination Emax [16] | combination Emax [17] | combination Emax [18] | combination Emax [19] | combination Emax [20]
1 | COc1cccc(OCCCN)c1-c1cc(Nc2cnc(C#N)cn2)n[nH]1 [Prexasertib] + CCc1c2c(nc3ccc(O)cc13)-c1cc3c(c(=O)n1C2)COC(=O)[C@]3(O)CC [SN-38] (first compound max 1 µM, 7x7, partner max 0.3 µM) | 0.93 | 1 | 0.799 | 1 | 0.999 | 0.878 | 0.947 | 1 | 0.529 | 0.938 | 0.921 | 0.913 | 0.83 | 0.86 | 1 | 1 | 1 | 0.934 | 0.8 | 0.987
2 | COc1nnc2ccc(N3CCC(c4ccc(OCCN5CCN(C)C(=O)[C@H]5C)cc4)CC3)nn12 [AZD5153] + C[C@@H]1COCCN1C2=NC(=NC(=C2)C3(CC3)[S@](=N)(=O)C)C4=C5C=CNC5=NC=C4 [AZD6738] (first compound max 1 µM, 7x7, partner max 10 µM) | 0.959 | 0.993 | 0.518 | 1 | 0.835 | 0.942 | 0.517 | 0.795 | 0.481 | 0.626 | 0.648 | 0.82 | 0.74 | 0.653 | 0.878 | 0.896 | 0.913 | 0.566 | 0.271 | 0.621
3 | C[C@@H](c1ccc2nccn2c1)n1nnc2ncc(-c3cnn(C)c3)nc21 [Savolitinib] + Cc1c2c(nn1C)CSCc1cc(n(C)n1)CSc1cc(c3ccccc3c1)OCCCc1c(C(=O)O)n(C)c3c-2c(Cl)ccc13 [AZD5991] (first compound max 1 µM, 7x7, partner max 1 µM) | 0.241 | 0.151 | 0.154 | 1 | 0.126 | 0.117 | 0.18 | 0.488 | 0.179 | 0.265 | 0.232 | 0.735 | 0.244 | 0.158 | 0.875 | 0.113 | 0.937 | 0.252 | 0.239 | 0.14
4 | C=CCn1c(=O)c2cnc(Nc3ccc(N4CCN(C)CC4)cc3)nc2n1-c1cccc(C(C)(C)O)n1 [AZD1775] + C1CN(CCC1(C(=O)N[C@@H](CCO)C2=CC=C(C=C2)Cl)N)C3=NC=NC4=C3C=CN4 [Capivasertib] (first compound max 3 µM, partner max 3 µM) | 0.976 | 1 | 0.69 | 1 | 0.999 | 0.521 | 0.626 | 0.781 | 0.355 | 0.691 | 0.75 | 0.851 | 0.561 | 0.631 | 0.884 | 0.652 | 0.7 | 0.787 | 0.816 | 0.464
5 | CN(CCO)CC[C@H](CSc1ccccc1)Nc1ccc(S(=O)(=O)NC(=O)c2ccc(N3CCC([C@@H](O)c4ccccc4-c4ccc(Cl)cc4)CC3)cc2)cc1S(=O)(=O)C(F)(F)F [AZD4320] + C1CN(CCC1(C(=O)N[C@@H](CCO)C2=CC=C(C=C2)Cl)N)C3=NC=NC4=C3C=CN4 [Capivasertib] (first compound max 1 µM, 7x7, partner max 3 µM) | 0.692 | 1 | 0.21 | 0.192 | 0.249 | 0.564 | 0.31 | 0.216 | 0.74 | 0.0723 | 0.338 | 0.341 | 0.388 | 0.289 | 0.255 | 0.552 | 0.447 | 0.168 | 0.356 | 0.196
6 | Cn1cnc2c(F)c(Nc3ccc(Br)cc3Cl)c(C(=O)NOCCO)cc21 [Selumetinib] + C[C@@H]1COCCN1C2=NC(=NC(=C2)C3(CC3)[S@](=N)(=O)C)C4=C5C=CNC5=NC=C4 [AZD6738] (first compound max 10 µM, 7x7, partner max 10 µM) | 0.986 | 0.963 | 0.395 | 1 | 0.882 | 0.864 | 0.537 | 0.763 | 0.467 | 0.568 | 0.278 | 0.795 | 0.339 | 0.35 | 0.756 | 0.87 | 0.961 | 0.546 | 0.147 | 0.312
7 | CC(=O)c1c(C)c2cnc(Nc3ccc(N4CCNCC4)cn3)nc2n(C2CCCC2)c1=O [Palbociclib] + Cc1c2c(nn1C)CSCc1cc(n(C)n1)CSc1cc(c3ccccc3c1)OCCCc1c(C(=O)O)n(C)c3c-2c(Cl)ccc13 [AZD5991] (first compound max 10 µM, 7x7, partner max 1 µM) | 0.445 | 0.732 | 0.229 | 1 | 0.21 | 0.244 | 0.251 | 0.597 | 0.216 | 0.245 | 0.275 | 0.586 | 0.287 | 0.167 | 0.98 | 0.316 | 0.347 | 0.173 | 0.14 | 0.253
8 | CC(=O)c1c(C)c2cnc(Nc3ccc(N4CCNCC4)cn3)nc2n(C2CCCC2)c1=O [Palbociclib] + CC1(C)CCC(CN2CCN(c3ccc(C(=O)NS(=O)(=O)c4ccc(NCC5CCOCC5)c([N+](=O)[O-])c4)c(Oc4cnc5[nH]ccc5c4)c3)CC2)=C(c2ccc(Cl)cc2)C1 [Venetoclax] (first compound max 10 µM, 7x7, partner max 1 µM) | 0.356 | 0.67 | 0.0978 | 0.874 | 0.218 | 0.21 | 0.144 | 0.453 | 0.0784 | 0.163 | 0.108 | 0.163 | 0.203 | 0.167 | 0.634 | 0.506 | 0.336 | 0.152 | 0.114 | 0.175
9 | Cc1c2c(nn1C)CSCc1cc(n(C)n1)CSc1cc(c3ccccc3c1)OCCCc1c(C(=O)O)n(C)c3c-2c(Cl)ccc13 [AZD5991] + C=CCn1c(=O)c2cnc(Nc3ccc(N4CCN(C)CC4)cc3)nc2n1-c1cccc(C(C)(C)O)n1 [AZD1775] (first compound max 1 µM, partner max 1 µM) | 0.781 | 1 | 0.283 | 1 | 0.979 | 0.502 | 0.331 | 0.812 | 0.459 | 0.551 | 0.519 | 0.899 | 0.585 | 0.626 | 0.966 | 0.617 | 0.565 | 0.596 | 0.366 | 0.271
10 | COc1nnc2ccc(N3CCC(c4ccc(OCCN5CCN(C)C(=O)[C@H]5C)cc4)CC3)nn12 [AZD5153] + CCN(CCO)CCCOc1ccc2c(Nc3cc(CC(=O)Nc4cccc(F)c4)[nH]n3)ncnc2c1 [AZD2811] (first compound max 1 µM, 7x7, partner max 1 µM) | 0.936 | 0.993 | 0.367 | 0.905 | 0.606 | 0.685 | 0.489 | 0.815 | 0.256 | 0.542 | 0.546 | 0.49 | 0.333 | 0.484 | 0.481 | 0.728 | 0.506 | 0.366 | 0.218 | 0.459
11 | CN(CCO)CC[C@H](CSc1ccccc1)Nc1ccc(S(=O)(=O)NC(=O)c2ccc(N3CCC([C@@H](O)c4ccccc4-c4ccc(Cl)cc4)CC3)cc2)cc1S(=O)(=O)C(F)(F)F [AZD4320] + Cn1cnc2c(F)c(Nc3ccc(Br)cc3Cl)c(C(=O)NOCCO)cc21 [Selumetinib] (first compound max 1 µM, 7x7, partner max 3 µM) | 1 | 0.993 | 0.294 | 0.858 | 0.817 | 0.823 | 0.305 | 0.619 | 0.687 | 0.544 | 0.373 | 0.334 | 0.396 | 0.367 | 0.265 | 0.993 | 0.759 | 0.405 | 0.438 | 0.332
12 | CN(CCO)CC[C@H](CSc1ccccc1)Nc1ccc(S(=O)(=O)NC(=O)c2ccc(N3CCC([C@@H](O)c4ccccc4-c4ccc(Cl)cc4)CC3)cc2)cc1S(=O)(=O)C(F)(F)F [AZD4320] + C=CCn1c(=O)c2cnc(Nc3ccc(N4CCN(C)CC4)cc3)nc2n1-c1cccc(C(C)(C)O)n1 [AZD1775] (first compound max 1 µM, partner max 1 µM) | 0.999 | 1 | 0.241 | 1 | 0.99 | 1 | 0.232 | 0.549 | 0.718 | 0.395 | 0.634 | 0.918 | 0.273 | 0.585 | 0.932 | 0.934 | 0.658 | 0.689 | 0.34 | 0.276
